Patent publication US10287617B2, “Methods for in vitro—in vivo efficacy determination” (COLORADO STATE UNIVERSITY RESEARCH FOUNDATION, priority 2014, dated 2019)
≈ marks a conversion by molar mass, not a printed value. Entries after “also recorded” stand apart in the source; their conditions may differ. Where two headings read alike, the source gives them in different places. Marks after values point to notes of the source that are not given here.

Tests used:
[1] = tested on: non-replicating M. tuberculosis H37Rv; test: Low oxygen study, non-replicating bacilli; type: cell-based, Mycobacterium tuberculosis; conditions: for Log10 (CFU+/−SD): 96 h post-treatment; for % Growth Reduction: benzimidazoles at 4 μg/mL; for Log10 (CFU) Reduction: vs control
Method: The low oxygen studies were performed similar to those described previously (Lenaerts et al., Antimicrob. Agents Chemother. 2005; 49:2294-2301). Briefly, M. tuberculosis H37Rv were diluted to an O.D. 600 nm of 0.003 in 7H9 media containing Methylene Blue (1.5 μg/mL) and were grown in 16×125 mm Hungate tubes with rubber septa (VWR cat#89167-170). The tubes, with 11 mL of the diluted cultures were incubated at 37° C. under agitation (150 rpm). […] One week after the reduction of methylene blue, approximately 28 days from the start, drug treatment was initiated with the test and control drugs. Prior to treatment, an aliquot was removed and plated for a CFU count to serve as a control. Isoniazid and metronidazole were used in the studies as comparative controls.
Recovery of aliquots for plating and the addition of drugs were conducted through septa using syringes to maintain the low-oxygen conditions. Ninety-six hours post-treatment, 1 mL of the culture was removed from the oxygen depleted cultures, the aliquot was serial diluted and the dilutions were plated. Log10 CFUs were calculated for the different treatments and concentrations. Percentage growth reduction from the controls was calculated and reported.

M. tuberculosis H37Rv [2] = type: cell-based; conditions: for MIC Alone: drug alone
[3] = tested on: Mycobacteria tuberculosis; test: MIC and drug response curve type (Tables A and B); type: cell-based, Mycobacterium tuberculosis; conditions: for Curve: drug response curve type; for MIC: in µg/mL
Method: A drug concentration response curve can be generated by graphing the log10 drug concentrations (μg/mL) against the difference in growth between the drug-treated wells and control wells. See FIG. 3C, and FIG. 5 (entries for SB-P23D8 and SB-P26D9). A NREBA is indicative of bacteriostatic activity above the MIC.
(§1) Further analysis using the methods described herein was performed on the compounds found in Tables A and B (bold font compounds are shown in FIG. 11) resulting in the data found therein.
MIC values were determined for the benzimidazoles using a modified 96-well microplate Alamar Blue (resazurin) assay (MABA) (see Kumar et al., J. Med. Chem. 2011; 54:374-381; Collins and Franzblau, Antimicrob. Agents Chemother. 1997; 41:1004-1009). Dose response curves were generated from the MABA assay for compounds by graphing the log10 drug concentrations against the difference in growth between the drug-treated wells and control wells using GraphPad Prism Version 5.0d for Mac OS X (GraphPad Software, San Diego Calif., USA, www.graphpad.com). For time dose studies, bacterial growth in the presence of compound was monitored by the O.D. 600 nm. […] The values were plotted against time using GraphPad Prism Version 5.0d for Mac OS X (GraphPad Software, San Diego Calif., USA, www.graphpad.com).

M. tuberculosis H37Rv [4] = test: Growth inhibition / time dose curves (OD600 and CFU); type: cell-based, Mycobacterium tuberculosis; conditions: for concentrations at which bacterial growth was inhibited: O.D. 600 nm growth curves, 5 days
M. tuberculosis H37Rv [5] = test: MIC / dose response by modified microplate Alamar Blue assay (MABA); type: cell-based, Mycobacterium tuberculosis; conditions: for drug concentration response curve (kill curve) type: FIG. 3; for MIC range: H37Rv and Erdman strains
M. tuberculosis = test: Benzimidazoles activity tested in animals (animal models of infection, Table A); type: in vivo, mouse; conditions: for Efficacy Lung / Efficacy Spleen: Table A
Method: as §1
Compound efficacy was assessed in two murine models of infection based on the short term model described previously (Lenaerts et al., Antimicrob. Agents Chemother. 2003; 47:783-785). All aerosol infections were performed using a Middlebrook aerosol generation devise (Glas-Col, Terre Haute, Ind.).

M. tuberculosis NHN20 = test: microbe, parasite or virus in culture; type: cell-based, Mycobacterium tuberculosis
M. tuberculosis W210 = test: microbe, parasite or virus in culture; type: cell-based, Mycobacterium tuberculosis
[6] = Oxidative metabolic lability in human liver microsomes; conditions: 5 μM, 1 mg/mL microsomal protein, 20 min
Method: (§2) Microsomal fractions were prepared in the Drug Disposition Domain at DSAR Montpellier (371 rue du Pr. J. Blayac, 34184 Montpellier Cedex 04, France). […] The flavin-containing monooxygenases (FMO)-dependent reactions were run in the presence of bovine serum albumin (BSA, 0.1%) for the duration of 0 and 20 min (with or without microsomal proteins and/or cofactors). […] Following protein precipitation with acetonitrile and their removal by centrifugation, supernatant fluids were analyzed by LC/MS-MS.
(§3) Thermo Finnigan TSQ Quantum Ultra instrument, ESI positive ion ionization mode. Each compound is studied in duplicates. Results are expressed in percentage of lability (or total metabolism). Total metabolism=[1−(UC_Peak Area+Cofactor at T20)/(UC_Peak Area Reference at T0)]×100
(§4) The reactions were prepared as described and were run in the presence of bovine scrum albumin (BSA, 0.1%) for the duration of 0 and 20 min (with or without microsomal proteins and/or cofactors). Enzyme activity was stopped, the protein was precipitated and removed by centrifugation. The supernatant fluids were analyzed by LC/MS-MS. […] A Thermo Finnigan TSQ Quantum Ultra instrument, ESI positive ion ionization mode was used for MS/MS. Each compound was studied in duplicates. Results are expressed in percentage of lability (or total metabolism) using the following formula: Total metabolism=[1−(UC_Peak Area+Cofactor at T20)/(UC_Peak Area Reference at T0)]×100 where UC=Unchanged Compound; “Reference” sample was NADPH for liver microsomal preparation.

M. tuberculosis TN587 = test: microbe, parasite or virus in culture; type: cell-based, Mycobacterium tuberculosis
M. tuberculosis NHN382 = test: microbe, parasite or virus in culture; type: cell-based, Mycobacterium tuberculosis
Vero cells = test: Cytotoxicity assay (resazurin, 72 h); type: cell-based
Method: The cytotoxicity assay was performed as described previously^16. Briefly compounds were serially diluted in 96 well plates.

[7] = Oxidative metabolic lability in mouse liver microsomes; conditions: 5 μM, 1 mg/mL microsomal protein, 20 min
Method: as §2, §3, §4

M. tuberculosis Erdman = type: in vivo; conditions: 50 mg/kg b.i.d. (Inh q.d.); for Log10CFU Lungs / Log10CFU Spleen: day 15

Cc1ncc([N+](=O)[O-])n1CCO [Metronidazole, reference compound]
Log10 (CFU+/−SD) [1]: 4.83 ± 0.06 | % Growth Reduction [1]: 70% | Log10 (CFU) Reduction [1]: 0.52

CO[C@H]1/C=C/O[C@@]2(C)Oc3c(C)c(O)c4c(O)c(c(/C=N/N5CCN(C)CC5)c(O)c4c3C2=O)NC(=O)/C(C)=C\C=C\[C@H](C)[C@H](O)[C@@H](C)[C@@H](O)[C@@H](C)[C@H](OC(C)=O)[C@@H]1C [Rifampicin, reference compound]
MIC In Combination (M. tuberculosis H37Rv [2]; SB-P8B2 with rifampicin): 0.5 × MIC | MIC Alone (M. tuberculosis H37Rv [2]): 1 × MIC

CCN(CC)c1cc2[nH]c(C3CCCCC3)nc2cc1NC(=O)c1ccc(OC)cc1.O=C(O)/C=C/C(=O)O [SB-P1G10-FUM]
Curve ([3]; Table B): Zonal | MIC ([3]; Table B): 6.25

CCN(CC)c1cc2[nH]c(C3CCCCC3)nc2cc1NC(=O)c1ccc(OC)cc1 [SB-P1G10]
Curve ([3]; Table A): Zonal | MIC ([3]; Table A): 3.13-6.25 | concentrations at which bacterial growth was inhibited (M. tuberculosis H37Rv [4]): none of the concentrations tested | drug concentration response curve (kill curve) type (M. tuberculosis H37Rv [5]): narrow range of concentrations of effective bactericidal activity (NREBA) kill curve | MIC range (M. tuberculosis H37Rv [5]): 3 to 6.25 µg/mL | concentration range of bactericidal activity (M. tuberculosis H37Rv [5]; drug concentration response curve): 0.5-4 fold of MIC | Efficacy Lung (M. tuberculosis): No | Efficacy Spleen (M. tuberculosis): No | bacterial load in the lungs or spleen (M. tuberculosis; any animal model of infection conducted): never reduced the bacterial load

CCN(CC)c1cc2[nH]c(C3CCCCC3)nc2cc1NC(=O)c1ccc(N(C)C)cc1 [SB-P1G-A11]
Curve ([3]; Table B): Zonal | MIC ([3]; Table B): 12.5

CCN(CC)c1cc2[nH]c(C3CCCCC3)nc2cc1NC(=O)c1cnccn1 [SB-P1G-A12]
Curve ([3]; Table B): Zonal | MIC ([3]; Table B): 12.5

CCc1ccc(C(=O)Nc2cc3nc(C4CCCCC4)[nH]c3cc2N(CC)CC)cc1 [SB-P1G-A17]
Curve ([3]; Table B): Zonal | MIC ([3]; Table B): 1.56

C=Cc1cccc(C(=O)Nc2cc3nc(C4CCCCC4)[nH]c3cc2N(CC)CC)c1 [SB-P1G-A21]
Curve ([3]; Table B): Zonal | MIC ([3]; Table B): 25

CCCOCC(=O)Nc1cc2nc(C3CCCCC3)[nH]c2cc1N1CCCC1 [SB-P6B-A3]
Curve ([3]; Table B): Zonal | MIC ([3]; Table B): 12.5

CCCCOC(=O)Nc1cc2nc(C3CCCCC3)[nH]c2cc1N1CCCC1 [SB-P8B2]
Curve ([3]; Table A): Sigmoid | MIC ([3]; Table A): .625 | Log10 (CFU+/−SD) [1]: 4.96 ± 0.18 | % Growth Reduction [1]: 59% | Log10 (CFU) Reduction [1]: 0.39 | concentrations at which bacterial growth was inhibited (M. tuberculosis H37Rv [4]): > 0.31 µg/mL | MIC In Combination (M. tuberculosis H37Rv [2]; SB-P8B2 with rifampicin): 0.1 × MIC | enhancement of activity in the presence of the other drug (M. tuberculosis H37Rv [2]; SB-P8B2 with rifampicin): 8 fold | ΣFIC (M. tuberculosis H37Rv [2]; SB-P8B2 with rifampicin): 0.63 | MIC Alone (M. tuberculosis H37Rv [2]): 1 × MIC | drug concentration response curve (kill curve) type (M. tuberculosis H37Rv [5]): sigmoidal kill curves | MIC range (M. tuberculosis H37Rv [5]): 0.39 to 0.78 µg/mL | Efficacy Lung (M. tuberculosis): Yes (.243) | Efficacy Spleen (M. tuberculosis): No

COc1ccc(C(=O)Nc2cc3nc(C4CCCCC4)[nH]c3cc2N(C)C)cc1 [SB-P17G-A16]
Curve ([3]; Table A): Sigmoid | MIC ([3]; Table A): .31 | Efficacy Lung (M. tuberculosis): Yes | Efficacy Spleen (M. tuberculosis): Yes

CN(C)c1cc2[nH]c(C3CCCCC3)nc2cc1NC(=O)c1ccc(OC(F)(F)F)c(F)c1F [SB-P17G-A33]
Curve ([3]; Table A): Sigmoid | MIC ([3]; Table A): .5-.625 | MIC (M. tuberculosis NHN20): 0.39 ± 0.33 µg/mL (≈ 0.808 µM) | MIC (M. tuberculosis W210): 0.47 ± 0.22 µg/mL (≈ 0.974 µM) | Liver Microsome Lability Human [6]: 5% | MIC (M. tuberculosis TN587): 0.31 ± 0 µg/mL (≈ 0.643 µM) | MIC (M. tuberculosis NHN382): 0.37 ± 0.24 µg/mL (≈ 0.767 µM) | reduction in number of viable bacteria (M. tuberculosis H37Rv [4]; 1×MIC, day 2): 0.8-1.7 Log10 CFU | Vero Cells (cytotoxicity IC50) (Vero cells; 72 h): >200 µg/mL | cytotoxicity in Vero cells (Vero cells; at 200 μg/mL): not cytotoxic; also recorded: non-toxic | Liver Microsome Lability Mouse [7]: 17% | Δ Lungs (difference between means of Test and Control Groups) (M. tuberculosis Erdman; IP): −2.10** Log10 CFU | Δ Spleen (difference between means of Test and Control Groups) (M. tuberculosis Erdman; IP): −3.36*** Log10 CFU | Log10CFU Lungs (M. tuberculosis Erdman; IP): 4.59 ± 0.71 Log10 CFU | Log10CFU Spleen (M. tuberculosis Erdman; IP): 1.60 ± .0 Log10 CFU | Δ Lungs (difference between means of Test and Control Groups) (M. tuberculosis Erdman; PO): −1.72*** Log10 CFU | Δ Spleen (difference between means of Test and Control Groups) (M. tuberculosis Erdman; PO): −2.49*** Log10 CFU | Log10CFU Lungs (M. tuberculosis Erdman; PO): 4.58 ± 0.21 Log10 CFU | Log10CFU Spleen (M. tuberculosis Erdman; PO): 1.40 ± 1.24 Log10 CFU | MIC (M. tuberculosis H37Rv [5]; H37Rv): 0.39 ± 0.16 µg/mL (≈ 0.808 µM) | Efficacy Lung (M. tuberculosis): Yes | Efficacy Spleen (M. tuberculosis): Yes

CN(C)c1cc2[nH]c(C3CCCCC3)nc2cc1NC(=O)OCc1ccccc1 [SB-P17G-C4]
Curve ([3]; Table B): Zonal | MIC ([3]; Table B): 12.5

COc1ccc(C(=O)Nc2cc3nc(C4CCCCC4)[nH]c3cc2Oc2ccc(F)cc2)cc1 [SB-P23D8]
Curve ([3]; Table B): Zonal | MIC ([3]; Table B): 3.13

Cc1ccc(C(=O)Nc2cc3nc(C4CCCCC4)[nH]c3cc2Oc2ccc(F)cc2)cc1 [SB-P26D9]
Curve ([3]; Table B): Zonal | MIC ([3]; Table B): 1.56

CC(C)(C)c1ccc(C(=O)Nc2cc3nc(C4CCCCC4)[nH]c3cc2Sc2ccccc2)cc1 [SB-P26F8]
Curve ([3]; Table B): Zonal | MIC ([3]; Table B): 25

Cc1ccc(C(=O)Nc2cc3nc(C4CCCCC4)[nH]c3cc2Sc2ccccc2)cc1 [SB-P26F9]
Curve ([3]; Table B): Zonal | MIC ([3]; Table B): 6.25

CC(C)(C)c1ccc(C(=O)Nc2cc3nc(C4CCCCC4)[nH]c3cc2SCc2ccccc2)cc1 [SB-P26H8]
Curve ([3]; Table B): Zonal | MIC ([3]; Table B): 25

Cc1ccc(C(=O)Nc2cc3nc(Cc4ccccc4)[nH]c3cc2N(C)C)cc1 [SB-P27A9]
Curve ([3]; Table B): Zonal | MIC ([3]; Table B): 12.5

CCC(CC)c1nc2cc(NC(=O)c3ccccc3OC)c(N(C)C)cc2[nH]1 [SB-P27C7]
Curve ([3]; Table B): Zonal | MIC ([3]; Table B): 6.25

CCCN(CCC)c1cc2[nH]c(C3CCCCC3)nc2cc1NC(=O)OCCOCC [SB-oli-C8]
Curve ([3]; Table B): Zonal | MIC ([3]; Table B): 6.25

O=C(Nc1cc2nc(C3CCCCC3)[nH]c2cc1N1CCCC1)OCc1ccccc1 [SBP8B4]
Curve ([3]; Table A): Sigmoid | MIC ([3]; Table A): 3.13 | Efficacy Lung (M. tuberculosis): None | Efficacy Spleen (M. tuberculosis): None
